“Also recorded” adds a separate entry of the source.
Key:
Assay type in all cases: cell-based
[1] = molecular target: T1, DCAF15-RBM39 binding (Homo sapiens, UniProt Q66K64); experiment: MAPPIT inverse assay, RBM39 receptor fusion + DCAF15 gp130 fusion; settings: inverse configuration; leptin; HEK293T
T1 construct: expressed in transfected cells; host or cells: HEK293T
Description: (§1) In this example, MAPPIT forward and inverse assays were developed that enable the assessment of sulfonamides to induce binding between DCAF15 and RBM39. […] The experimental setup was according to the procedure described before, using the following plasmid constructs encoding the MAPPIT receptor and gp130 fusions: in forward mode the DCAF15 bait was fused to a MAPPIT chimeric receptor construct containing the extracellular leptin receptor domain (pCLL-DCAF15) and RBM39 proteins was fused to the partial gp130 domain; in inverse mode, the DCAF15 bait was fused to the partial gp130 domain and RBM39 was fused to a MAPPIT transmembrane receptor (pCLG-RBM39). […] Cells were treated with leptin without or with the indicated dose of test compound (indisulam, tasisulam, CQS or E7820) at 24 hours after transfection. Luciferase activity was measured 24 hours after test compound treatment using the Luciferase Assay System kit (PROMEGA, Madison, Wis.) with an Ensight plate reader (PERKIN ELMER LIFE SCIENCES, Waltham, Mass.). […] Error bars represent standard deviations. […] The results shown in FIG. 12 indicate that only in the inverse assay mode sulfonamide-induced DCAF15-RBM39 binding can be observed.

[2] = molecular target: T2, CRBN (Homo sapiens, UniProt Q96SW2); experiment: CRBN inverse MAPPIT competition assay against TMP-lenalidomide hybrid ligand; settings: 300 nM TMP-lenalidomide; leptin; HEK293T; specificity versus gp130-REM2 control (CTRL)
T2 construct: expressed in transfected cells; host or cells: HEK293T
Description: As in Example 6, HEK293T cells were transfected with a plasmid encoding E. coli Dihydrofolate Reductase (DHFR) fused to the tails of the cytoplasmic domain of a mutated leptin receptor (pCLG-DHFR), a plasmid encoding a CRBN prey fused to the gp130 cytoplasmic domain or a plasmid encoding a gp130-REM2 control fusion that can directly interact with the leptin receptor of the DHFR fusion protein, and the STAT3 responsive pXP2d2-rPAPI-luciferase reporter plasmid—using a standard transfection method, as described (Lievens, et al. “Array MAPPIT: high-throughput interactome analysis in mammalian cells.” Journal of Proteome Research 8.2 (2009): 877-886). […] Data points in FIGS. 10A-B represent the average luciferase activity of triplicate samples derived from cells treated with leptin+test compound for the REM2 control (CTRL) or cells treated with leptin+hybrid ligand+test compound (CRBN) relative to leptin (CTRL) or leptin+hybrid ligand (CRBN) only treated samples (the signals obtained in absence of added test compound for both cases is set at 100% of luciferase activity on y-axis). Error bars represent standard deviations. Curves were fit using 4-parameter nonlinear regression in […] PRISM software.

[3] = molecular target: T1, DCAF15-RBM39 binding; experiment: MAPPIT forward assay, DCAF15 receptor fusion + RBM39 gp130 fusion; settings: forward configuration; leptin; HEK293T
Description: as §1

Row | Structure (SMILES) | sulfonamide-induced recruitment of RBM39 to DCAF15 (luciferase signal) [1] | competition with TMP-lenalidomide hybrid ligand for binding to CRBN (inhibition of luciferase signal) [2] | sulfonamide-induced recruitment of RBM39 to DCAF15 (luciferase signal) [3]
1 | Cc1ccc(NS(=O)(=O)c2cccc(C#N)c2)c2[nH]cc(C#N)c12 [E7820] | dose-dependent luciferase signal increase | – | –
2 | O=C(NS(=O)(=O)c1ccc(Br)s1)c1ccc(Cl)cc1Cl [tasisulam] | dose-dependent luciferase signal increase | – | –
3 | Nc1cccc2c1C(=O)N(C1CCC(=O)NC1=O)C2=O (stereo not drawn) [pomalidomide] | – | specifically inhibit hybrid-ligand induced luciferase reporter activation in a dose-dependent manner; also recorded: competed efficiently | –
4 | NS(=O)(=O)c1ccc(S(=O)(=O)Nc2cccc3c(Cl)c[nH]c23)cc1 [indisulam] | dose-dependent luciferase signal increase | – | only in inverse mode could a dose-dependent luciferase signal increase be observed
5 | Cc1nc2cccc(N)c2c(=O)n1C1CCC(=O)NC1=O (stereo not drawn) [CC-122] | – | specifically inhibit hybrid-ligand induced luciferase reporter activation in a dose-dependent manner; also recorded: competed efficiently | –

Reference: US20230026360A1, “DETECTION OF MOLECULAR INTERACTIONS” (Orionis Biosciences, Inc., priority 2019, published 2023)
